Values joined by “and” are separate entries in the source; they are usually repeats but may differ in a detail not shown here. Equal entries are not always repeated. “Also recorded” adds a separate entry of the source. Where two headings read alike, the source gives them in different places.
Key:
PC-3 cells [1] = assay: Cell rounding assay in PC-3 cells; type: cell-based, human; settings: 30 min
Protocol: Cell Rounding Assay—The day before transfection, PC-3 cells were grown on laminin-coated coverslips in 12-well plates until […]. Cells were then transfected with 0.2 μg of EGFP cDNA. To disrupt rho signaling GFP was co-transfected with either a C3 exotoxin expression vector (0.5 μg) or with 2.0 μg of the indicated siRNA or inverted control along with 8 μl/well of LipofectAMINE 2000. At 45 h post-transfection, cultures were changed to serum-free medium and 6 h later treated with either buffer, thrombin (100 nM), or LPA (50 μM) for 30 min. Cells were then fixed with 4% paraformaldehyde for 10 min and GFP images obtained using an Olympus fluorescence microscope with a 20× objective. Fluorescent cells were counted (100-300 per coverslip) and the percentage of rounded cells determined. Cell rounding at 30 min was dose-dependent (EC50 80 nM for thrombin and 50 μM for LPA) and reversible upon removal of thrombin for 45 min.
rho stimulates several types of cytoskeletal rearrangements. […] In these studies, at 48 h after transfection, cells were stimulated with thrombin (100 nM) or LPA (50 μM) for 30 min, fixed, and fluorescence images taken. […] At 48 h post-transfection cells were stimulated with thrombin or LPA and analyzed as described above. One-hundred green cells from each coverslip were counted, and the percentage of round cells was determined. […]

PC-3 cells [2] = assay: WST1 metabolism viability control for BrdU studies; type: cell-based, human; settings: 10 uM, 18 hours of drug treatment, absence of serum
Protocol: Even more exciting are the effects of the novel inhibitors of the present invention on PC-3 cell functions (LPA-stimulated DNA synthesis, proliferation, and invasion). More particularly, it is shown that for the highly aggressive human PC-3 prostate cancer cell line, the novel inhibitors described herein inhibit proliferation, LPA-stimulated DNA synthesis, and matrix invasion. All of these effects occur at remarkably similar concentrations (IC50 900, 830, and 600 nM, respectively). This is also very similar to the concentration needed to inhibit rho-stimulated SRE.L luciferase expression in HEK293T cells (980 nM). […] Only at high concentrations (10 uM) is there any effect on proliferation or matrix invasion and there is no inhibition of BrdU incorporation as well.

GAL4-VP16 Luciferase = GAL4-VP16 Luciferase control reporter; type: cell-based
RhoC = RhoC transcriptional signal, SRE-Luciferase / CMV-Renilla dual reporters (FIG. 6); type: cell-based; settings: 6 micromolar, added 6 hours after transfection, read 16 hours later
Protocol: (§1) FIG. 6 CCG-1423 inhibits both RhoA and RhoC transcriptional signals. Cells were transfected with the dual reporters SRE-Luciferase and CMV-Renilla then 6 hours later, 6 micromolar CCG-1423 was added and reporter activity measured 16 hours later.

SRE Luciferase = SRE Luciferase reporter with different rho pathway activators (PC-3 cells, FIG. 8, FIG. 13); type: cell-based, human; settings: for luciferase expression induced by G13, LARG or constitutively active rhoA-GV: FIG. 8
Protocol: (§2) FIG. 8 Inhibition of reporter gene transcription in PC-3 cells. CCG 1423 (10 μM) acts at the transcriptional level inhibiting SRE Luciferase stimulated by both upstream (Gα13, LARG, and RhoA-GV) and downstream signals (MKL1).
FIG. 13. Inhibition by CCG-1423 of three different rho pathway activators (G13, rhoA-GV, and MKL1) with no effect on control reporter plasmid CMV-Renilla.
(§3) The point of action of these inhibitors in the assay was investigated by transfecting the cells with different activators of the pathway (rho, MKL1, and an activated SRF analog SRF-VP16). […] This is consistent with the known site of action of Latruculin. […] Thus, the compounds may be acting by inhibiting MKL- or SRF- or both MKL and SRF-dependent gene transcription. […] Regardless of the mechanism of action, the present invention describes a novel gene transcription inhibitor that selectively prevents MKL/SRF-mediated signals.

SKOV-3 cells [3] = assay: Cell growth (WST1 absorbance) of SKOV-3 cells; type: cell-based
Protocol: PC-3 or SKOV-3 cells (2000 per well) were plated in medium containing 2% FBS. After growth overnight, the indicated concentrations of CCG-1423 were added from a DMSO stock (<1% final) and cells allowed to continue growing for an additional 7 days. Cell growth was measured by WST1 absorbance (similar to MTT). The IC50 values for PC-3 and SKOV-3 cells were 600 nM and 3 μM. The dotted line represents a no-cell blank.

[4] = tested on: PC-3 prostate cancer cells; assay: DNA synthesis (BrdU incorporation) in PC-3 cells; type: cell-based, human; settings: presence of serum
Protocol: FIG. 9 Serum and LPA stimulate DNA synthesis in PC-3 cells. PC-3 cells serum starved for 24 hours were treated for an additional 24 hours in the presence of serum (10% FBS) or the indicated concentrations of LPA. BrdU was added to the medium for the last 2 hours and incorporated BrdU detected in 96-well plates by immunostaining.
FIG. 10 CCG-1423 inhibits LPA- but not FBS-stimulated DNA synthesis in PC-3 prostate cancer cells.

[5] = tested on: Gα13/LARG/SRE transcriptional signaling pathway; assay: Gα13QL/LARG-stimulated SRE.L luciferase reporter assay (HTS) in HEK293T cells; type: cell-based, human; settings: for Inhibition of G13/LARG-stimulated rho transcriptional signaling: FIG. 5
Protocol: FIG. 2 Optimization of HTS Assay. HEK293T cells in 10 cm dishes were co-transfected with 2×-SRE luciferase reporter plasmid (3000 ng) alone or with Gα13QL (5 ng constitutive active mutant) and LARG (150 ng) expression plasmids for 5 hours. Then, the cells were plated into 96-well, and serum-starved for approx. 18 hours (0.5% Fetal Bovine Serum, DMEM medium). Cells were lysed and assayed for luciferase activity via Steady-Glo reagent (Promega) and a luminometer.
In exemplary embodiments of the present invention, HEK293T cells were transiently transfected with a 2×SRE.L-luciferase reporter plasmid that responds selectively to rho signaling (Hill et al., Cell 81:1159-1170, 1995). […] This expression plasmid is specific for rho/MKL/SRF driven gene expression. To stimulate rho, the upstream activators G13 and LARG (FIG. 1) were used. A constitutively active Gα13Q226L plasmid was co-transfected, along with an N-terminal myc-tagged LARG plasmid from Dr. Tohru Kozasa.
To use the reporter assay readout for high throughput chemical inhibition studies, the assay was modified to accommodate chemical inhibitors. Transfection was performed in 10 cm dishes with Lipofectamine 2000. Five hours after transfection, the cells were trypsinized and 30,000 cells per well were transferred into sterile white flat-bottom 96-well plates pre-spotted with 1 μl of chemical compound in DMSO (10 μM final conc). Cells were grown overnight in low serum (0.5% FBS/DMEM medium) exposed to the chemical compounds (in 1% DMSO) for approximately 18 hours before luminescence was read with Steady-Glo luciferase reagent (Promega) in a Victor II plate reader. As a positive inhibitor control, 0.5 μM of Latrunculin B was added to 8 wells per plate. In addition, 8 wells were treated with DMSO only. Latrunculin B is a marine toxin from the Red Sea sponge that is known to sequester monomeric G-actin in the cell and block rho-mediated transcriptional events (Miralles et al., Cell 113:329-342, 2003). The percent inhibition of the Gα13 QL/LARG stimulated SRE-luciferase response was calculated by setting the mean of the negative control (DMSO only) at 0% and the mean of the positive control (Latrunculin B) at 100%. The Z′ score of the assay for high throughput screening was excellent at 0.7 (FIG. 2) indicating reproducibility well-suited to HTS studies.
(§4) An exemplary screen for small molecule inhibitors of the Gα13/LARG/SRE transcriptional signaling pathway utilized a 2000 compound subset of the Maybridge Diverse Chemical Compound Library at 10 μM in the firefly luciferase assay described above. SRE transcription was stimulated by co-transfection of the constitutively active Gα13QL with LARG. […] A cutoff of 75% inhibition was chosen to identify hits for inhibition of the Gα13/LARG/SRE transcriptional signaling pathway. A total of 39 out of 2000 compounds met this criterion. […] To address this issue, a dual luciferase method with a “flash” luciferase substrate plus CMV-Renilla was used as a non-SRF-dependent reporter to eliminate toxic compounds (Table 2). This screen yielded only 4 compounds that were active and specific for the SRE.L reporter signal.

[6] = tested on: SKOV-3 ovarian cancer cell line; assay: BrdU incorporation in SKOV-3 cells; type: cell-based
ras = assay: ras-stimulated transcriptional signals (c-fos and SRE.L reporters, FIG. 14); type: cell-based; settings: for ras-stimulated transcriptional signals: c-fos reporter, FIG. 14 bottom panel
Text: FIG. 14. […] The rho reporter SRE.L can also be activated by ras (probably via rho activation).

RhoA = RhoA transcriptional signal, SRE-Luciferase / CMV-Renilla dual reporters (FIG. 6); type: cell-based; settings: 6 micromolar, added 6 hours after transfection, read 16 hours later
Protocol: as §1

SKOV-3 cells [7] = assay: Matrigel matrix invasion by SKOV-3 cells; type: cell-based
Protocol: FIG. 11 CCG-1423 inhibits the spontaneous matrix invasion by PC-3 cells. Top) One prostate and three ovarian cancer lines (50,000 cells per well) were lifted with trypsin, suspended in serum free medium and plated on 24-well Matrigel inserts with (solid) or without (hatched) 30 μM LPA in the lower chamber. After 24 hours, cells above the filter were wiped off and the remaining cells were fixed, stained, and counted to determine the number of cells that had invaded the Matrigel. Bottom) Matrigel invasion by PC-3 cells (-LPA) and SKOV-3 cells (+30 μM LPA) was tested in the presence of the indicated concentrations of CCG-1423.

CMV-Renilla = CMV-Renilla control reporter expression; type: cell-based
Protocol: as §1, §2, §4, §3

ROCK = assay: Luciferase expression stimulated by transfecting in the kinase ROCK; type: cell-based
[8] = tested on: RGS-rhoGEFs (LARG, PDZrhoGEF, p115rhoGEF); assay: rhoGEF-stimulated SRE.L dual luciferase assay in HEK293 cells; type: cell-based, human; settings: 0.5 μM
Protocol: Luciferase Assays—Twenty-four hours post-transfection with firefly and Renilla vectors, HEK293 cells were serum-starved (0.5% serum), and then at 48 h, luciferase activity was determined using the dual luciferase assay kit (Promega, Madison, Wis.) according to the manufacturer's instructions. The ratio of firefly to Renilla luciferase counts was calculated. Data are expressed as the percent of the control value (samples without siRNA).
In these studies, each rhoGEF plasmid DNA (p115, PDZ, or LARG) was introduced into HEK293T cells using LipofectAMINE 2000 in a 96-well plate along with the dual luciferase reporters (SRE.L and pRL-TK) and a panel of different rhoGEF siRNAs (+) or inverted mutant siRNAs (−). […] Firefly/Renilla ratios for the siRNAs (+ and −) were expressed as a percent of that for buffer controls with only the rhoGEF and reporter cDNAs transfected.

In the case of “lysophosphatidic acid [LPA, reference compound]”, the EC50 (PC-3 cells [1]) is reported as 50000 nM.

In the case of `CC(ONC(=O)c1cc(C(F)(F)F)cc(C(F)(F)F)c1)C(=O)Nc1ccc(Cl)cc1` (stereo not drawn) [CCG-1423], the “viable cells (WST1 metabolism)” value (PC-3 cells [2]) is reported as “no decrease in viable cells”, the “Gal-4-VP16 Luciferase signal” value (GAL4-VP16 Luciferase; 3 μM) is reported as “only a slight inhibitory effect” and the “GAL4-VP16 Luciferase” value (GAL4-VP16 Luciferase; 10 μM, PC-3 cells) is reported as “no effect”. For the same compound, the “RhoC transcriptional signal (rhoC-stimulated luciferase expression)” value (RhoC) was “inhibits”, the “luciferase expression activated by SRF-VP16” value (SRE Luciferase) was “inhibited; also recorded: able to inhibit” and the “luciferase expression induced by MKL” value (SRE Luciferase) was “inhibited”. The “SRE Luciferase stimulated by upstream (Gα13, LARG, and RhoA-GV) and downstream signals (MKL1)” value (SRE Luciferase; 10 μM, PC-3 cells) was “inhibiting”, the “SRF-VP16 Luciferase” value (SRE Luciferase; 10 μM, PC-3 cells) was “no effect” and the “luciferase expression induced by G13, LARG or constitutively active rhoA-GV” value (SRE Luciferase) was “inhibited”. The “three different rho pathway activators (G13, rhoA-GV, and MKL1)” value (SRE Luciferase; FIG. 13) was “Inhibition”, the “concentration at which there is any effect on proliferation” value (SKOV-3 cells [3]) was 10 µM and the IC50 (SKOV-3 cells [3]; 2% FBS, 7 days, WST1) was 3000 nM. The “FBS (serum)-stimulated DNA synthesis” value [4] was “not inhibited until high concentrations are reached”, the “Inhibition of G13/LARG-stimulated rho transcriptional signaling” value [5] was “Inhibition” and the IC50 ([5]; HEK293T cells, dose response curves, read-out: IC50, inhibition of G13/LARG (rho-) stimulated SRE.L luciferase expression) was ~1000 nM and 980 nM and 800 nM. The IC50 ([5]; HTS reporter assay, read-out: IC50, inhibition of MKL/SRF-dependent gene transcription) was roughly 800 nM, the “inhibition of BrdU incorporation” value [6] was “no inhibition” and the ras-stimulated transcriptional signals (ras) was “inhibition”. The “RhoA transcriptional signal (SRE-Luciferase)” value (RhoA) was “blocking; also recorded: inhibits”, the “concentration at which there is any effect on matrix invasion” value (SKOV-3 cells [7]) was 10 µM and the CMV-Renilla expression (CMV-Renilla; 3 μM) was “did not inhibit”. For the same compound, the “CMV-driven Renilla expression” value (CMV-Renilla; 10 μM, PC-3 cells) was “does not inhibit” and the “control reporter CMV-Renilla expression” value (CMV-Renilla; concentration not given) was “not inhibited; also recorded: no effect”.

With `C[C@@H](N)[C@H]1CC[C@H](C(=O)Nc2ccncc2)CC1` [Y-27632, reference compound] the “luciferase expression stimulated by transfecting in the kinase ROCK” value (ROCK) was “fully inhibited” and the “Inhibition of G13/LARG-stimulated rho transcriptional signaling” value [5] was “only partially blocked; also recorded: Inhibition”.

Work on thrombin yielded an EC50 (PC-3 cells [1]) of 80 nM.

With `C/C1=C/C(=O)O[C@@H]2C[C@@H](CC[C@H](C)/C=C\CC1)O[C@@](O)([C@@H]1CSC(=O)N1)C2` [Latrunculin B, reference compound] the “luciferase expression activated by SRF-VP16” value (SRE Luciferase) was “did not inhibit”, the “luciferase expression induced by G13, LARG or constitutively active rhoA-GV” value (SRE Luciferase) was “fully inhibits” and the “Inhibition of G13/LARG-stimulated rho transcriptional signaling” value [5] was “Inhibition”. The “SRE.L rho reporter signal activated by ras” value (ras; FIG. 14) was “blocked”, the ras-stimulated transcriptional signals (ras) was “not” and the rhoGEF-stimulated luciferase signal [8] was “completely eliminated”.

Reference: patent US20090264533A1, “Methods and Compositions for Modulating RHO-Mediated Gene Transcription” (priority 2005, published 2009)
